Measurements reported in ChEMBL document CHEMBL3991601, “The target landscape of clinical kinase drugs” (Science, 2017).
Calls of active or inactive are those of the source. Rule as the data show it, for most assays here: actives have a measured Kd and inactives only a lower limit.

Key:
[1] = target: Cyclin-dependent kinase 12 (Homo sapiens, UniProt Q9NYV4)
DNA topoisomerase 2-beta = DNA topoisomerase 2-beta (Homo sapiens, UniProt Q02880)
[2] = target: Tyrosine-protein kinase BTK (Homo sapiens, UniProt Q06187)
[3] = target: Mitotic checkpoint serine/threonine-protein kinase BUB1 (Homo sapiens, UniProt O43683)
[4] = target: Proto-oncogene tyrosine-protein kinase Src (Homo sapiens, UniProt P12931)
[5] = target: Ribosomal protein S6 kinase alpha-5 (Homo sapiens, UniProt O75582)
[6] = target: Inosine-5'-monophosphate dehydrogenase 2 (Homo sapiens, UniProt P12268)
[7] = target: Mitogen-activated protein kinase 9 (Homo sapiens, UniProt P45984)
[8] = target: Maternal embryonic leucine zipper kinase (Homo sapiens, UniProt Q14680)
TGF-beta receptor type-2 = TGF-beta receptor type-2 (Homo sapiens, UniProt P37173)
[9] = target: Dual specificity mitogen-activated protein kinase kinase 2 (Homo sapiens, UniProt P36507)
[10] = target: 5'-AMP-activated protein kinase catalytic subunit alpha-1 (Homo sapiens, UniProt Q13131)
[11] = target: T1, Tyrosine-protein kinase Tec (Homo sapiens, UniProt P42680)
T1 sequence (P42680 whole entry): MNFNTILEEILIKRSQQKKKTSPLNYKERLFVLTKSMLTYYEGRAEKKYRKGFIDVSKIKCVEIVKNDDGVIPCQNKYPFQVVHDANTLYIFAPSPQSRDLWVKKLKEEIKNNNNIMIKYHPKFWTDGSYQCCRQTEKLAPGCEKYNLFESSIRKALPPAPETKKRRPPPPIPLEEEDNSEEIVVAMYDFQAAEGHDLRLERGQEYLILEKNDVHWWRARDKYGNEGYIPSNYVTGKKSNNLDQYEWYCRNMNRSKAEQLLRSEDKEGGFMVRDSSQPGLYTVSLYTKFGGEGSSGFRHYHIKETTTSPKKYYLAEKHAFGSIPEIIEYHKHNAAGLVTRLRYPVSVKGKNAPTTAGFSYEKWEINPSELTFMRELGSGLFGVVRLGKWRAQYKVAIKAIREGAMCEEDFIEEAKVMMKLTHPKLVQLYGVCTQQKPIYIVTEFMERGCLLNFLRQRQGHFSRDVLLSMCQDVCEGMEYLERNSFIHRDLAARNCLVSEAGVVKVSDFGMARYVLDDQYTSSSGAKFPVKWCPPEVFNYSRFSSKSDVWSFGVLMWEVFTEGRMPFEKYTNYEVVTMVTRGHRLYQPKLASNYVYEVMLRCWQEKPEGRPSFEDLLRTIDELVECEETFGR

[12] = target: T2, Uncharacterized protein FLJ45252 (Homo sapiens, UniProt Q6ZSR9); conditions: read-out: Kd apparent; k-562, colo 205, sk-n-be(2) and mv-4-11
T2 sequence (Q6ZSR9 whole entry): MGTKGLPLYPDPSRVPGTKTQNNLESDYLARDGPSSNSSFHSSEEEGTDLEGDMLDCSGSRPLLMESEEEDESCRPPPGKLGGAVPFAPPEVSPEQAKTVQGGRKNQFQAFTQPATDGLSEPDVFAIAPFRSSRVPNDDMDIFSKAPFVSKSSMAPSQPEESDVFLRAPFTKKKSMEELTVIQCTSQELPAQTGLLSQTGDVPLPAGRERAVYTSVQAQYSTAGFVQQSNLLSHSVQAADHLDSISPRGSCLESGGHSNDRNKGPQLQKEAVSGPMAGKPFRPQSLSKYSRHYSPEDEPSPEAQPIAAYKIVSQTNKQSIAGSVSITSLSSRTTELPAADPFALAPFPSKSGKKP

[13] = target: T3, Ferrochelatase, mitochondrial (Homo sapiens, UniProt P22830)
T3 sequence (P22830 whole entry): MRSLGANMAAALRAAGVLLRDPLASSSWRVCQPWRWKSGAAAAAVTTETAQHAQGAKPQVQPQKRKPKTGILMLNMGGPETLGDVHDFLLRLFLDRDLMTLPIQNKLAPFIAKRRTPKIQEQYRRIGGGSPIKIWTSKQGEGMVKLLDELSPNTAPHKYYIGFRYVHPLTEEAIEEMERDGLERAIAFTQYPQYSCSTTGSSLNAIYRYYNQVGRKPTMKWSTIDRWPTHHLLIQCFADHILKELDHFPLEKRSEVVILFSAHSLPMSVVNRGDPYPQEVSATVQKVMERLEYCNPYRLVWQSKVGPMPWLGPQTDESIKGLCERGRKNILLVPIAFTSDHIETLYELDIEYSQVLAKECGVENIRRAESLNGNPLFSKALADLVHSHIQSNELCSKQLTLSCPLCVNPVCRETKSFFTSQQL
Also: in the data inactive means no Kd found up to 30 µM.

Tyrosine-protein kinase BTK, sequence (Q06187 whole entry): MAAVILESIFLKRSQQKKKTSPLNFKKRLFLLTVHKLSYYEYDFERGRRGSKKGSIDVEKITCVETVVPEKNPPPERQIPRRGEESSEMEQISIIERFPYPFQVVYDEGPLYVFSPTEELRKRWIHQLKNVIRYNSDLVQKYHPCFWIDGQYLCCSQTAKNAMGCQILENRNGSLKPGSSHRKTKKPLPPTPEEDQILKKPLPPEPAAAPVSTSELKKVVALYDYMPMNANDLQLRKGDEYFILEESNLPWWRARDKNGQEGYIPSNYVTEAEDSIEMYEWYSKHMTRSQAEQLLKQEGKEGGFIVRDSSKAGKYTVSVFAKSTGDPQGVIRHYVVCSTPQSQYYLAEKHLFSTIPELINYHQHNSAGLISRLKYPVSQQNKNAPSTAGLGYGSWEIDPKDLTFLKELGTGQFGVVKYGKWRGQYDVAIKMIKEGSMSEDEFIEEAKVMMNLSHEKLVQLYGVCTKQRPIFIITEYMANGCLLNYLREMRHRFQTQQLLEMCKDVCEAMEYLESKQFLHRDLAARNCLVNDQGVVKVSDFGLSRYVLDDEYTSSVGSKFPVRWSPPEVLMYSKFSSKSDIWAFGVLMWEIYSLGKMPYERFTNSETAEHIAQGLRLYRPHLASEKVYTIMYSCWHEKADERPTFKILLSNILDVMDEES
Maternal embryonic leucine zipper kinase, sequence (Q14680 whole entry): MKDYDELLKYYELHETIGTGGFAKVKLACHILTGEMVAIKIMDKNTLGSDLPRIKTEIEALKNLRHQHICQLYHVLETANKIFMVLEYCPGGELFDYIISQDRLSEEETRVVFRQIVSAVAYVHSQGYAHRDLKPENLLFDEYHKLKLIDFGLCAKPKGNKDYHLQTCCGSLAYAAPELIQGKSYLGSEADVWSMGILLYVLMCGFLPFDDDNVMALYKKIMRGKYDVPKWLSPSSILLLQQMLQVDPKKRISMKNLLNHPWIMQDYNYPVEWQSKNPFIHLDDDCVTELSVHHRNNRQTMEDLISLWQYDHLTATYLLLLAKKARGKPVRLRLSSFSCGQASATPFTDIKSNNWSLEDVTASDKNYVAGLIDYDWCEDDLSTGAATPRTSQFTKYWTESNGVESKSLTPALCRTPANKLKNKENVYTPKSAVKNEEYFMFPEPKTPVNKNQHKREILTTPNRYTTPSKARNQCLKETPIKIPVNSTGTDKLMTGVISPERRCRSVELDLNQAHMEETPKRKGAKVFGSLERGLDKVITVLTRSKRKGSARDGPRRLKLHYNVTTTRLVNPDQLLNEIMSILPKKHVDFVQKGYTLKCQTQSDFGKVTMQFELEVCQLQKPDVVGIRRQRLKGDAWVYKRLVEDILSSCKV
Proto-oncogene tyrosine-protein kinase Src, sequence (P12931 2-536 limits assumed): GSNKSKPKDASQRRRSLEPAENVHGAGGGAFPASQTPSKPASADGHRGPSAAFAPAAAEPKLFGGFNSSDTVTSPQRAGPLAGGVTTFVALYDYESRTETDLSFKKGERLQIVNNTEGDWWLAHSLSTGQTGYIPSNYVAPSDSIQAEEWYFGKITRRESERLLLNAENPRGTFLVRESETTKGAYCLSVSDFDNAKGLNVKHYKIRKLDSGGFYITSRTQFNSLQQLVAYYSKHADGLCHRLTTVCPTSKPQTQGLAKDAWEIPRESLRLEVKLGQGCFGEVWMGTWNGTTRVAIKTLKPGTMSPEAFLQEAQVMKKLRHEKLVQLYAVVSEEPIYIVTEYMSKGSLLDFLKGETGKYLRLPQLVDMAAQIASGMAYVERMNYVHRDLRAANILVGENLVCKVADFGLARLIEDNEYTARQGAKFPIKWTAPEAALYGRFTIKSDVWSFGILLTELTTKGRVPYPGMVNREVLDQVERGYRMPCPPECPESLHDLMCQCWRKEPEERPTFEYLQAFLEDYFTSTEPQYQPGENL
Dual specificity mitogen-activated protein kinase kinase 2, sequence (P36507 whole entry): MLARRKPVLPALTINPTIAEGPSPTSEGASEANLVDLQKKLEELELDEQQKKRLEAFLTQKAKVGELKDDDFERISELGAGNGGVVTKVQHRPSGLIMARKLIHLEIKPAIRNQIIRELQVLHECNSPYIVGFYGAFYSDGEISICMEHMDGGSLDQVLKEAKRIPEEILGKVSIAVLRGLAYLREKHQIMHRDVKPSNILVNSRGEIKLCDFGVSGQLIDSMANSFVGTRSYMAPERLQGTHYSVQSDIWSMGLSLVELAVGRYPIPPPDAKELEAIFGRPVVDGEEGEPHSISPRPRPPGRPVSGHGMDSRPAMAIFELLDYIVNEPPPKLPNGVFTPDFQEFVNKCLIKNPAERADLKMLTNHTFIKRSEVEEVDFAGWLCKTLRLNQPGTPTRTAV
5'-AMP-activated protein kinase catalytic subunit alpha-1, sequence (Q13131 whole entry): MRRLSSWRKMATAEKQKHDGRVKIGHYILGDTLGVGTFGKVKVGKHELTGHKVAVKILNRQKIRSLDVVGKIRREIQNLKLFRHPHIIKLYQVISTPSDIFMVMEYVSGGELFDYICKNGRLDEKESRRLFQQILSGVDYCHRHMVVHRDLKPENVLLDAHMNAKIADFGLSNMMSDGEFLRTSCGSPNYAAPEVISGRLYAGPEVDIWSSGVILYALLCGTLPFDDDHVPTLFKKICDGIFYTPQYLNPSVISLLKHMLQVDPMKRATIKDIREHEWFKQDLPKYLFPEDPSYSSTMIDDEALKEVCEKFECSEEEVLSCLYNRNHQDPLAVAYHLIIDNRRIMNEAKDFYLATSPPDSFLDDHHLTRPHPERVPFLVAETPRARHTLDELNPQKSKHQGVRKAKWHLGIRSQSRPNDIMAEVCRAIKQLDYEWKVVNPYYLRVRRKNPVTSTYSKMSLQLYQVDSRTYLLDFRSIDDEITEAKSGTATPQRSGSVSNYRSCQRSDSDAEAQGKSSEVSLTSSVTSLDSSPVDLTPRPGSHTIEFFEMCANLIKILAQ
Cyclin-dependent kinase 12, sequence (Q9NYV4 whole entry): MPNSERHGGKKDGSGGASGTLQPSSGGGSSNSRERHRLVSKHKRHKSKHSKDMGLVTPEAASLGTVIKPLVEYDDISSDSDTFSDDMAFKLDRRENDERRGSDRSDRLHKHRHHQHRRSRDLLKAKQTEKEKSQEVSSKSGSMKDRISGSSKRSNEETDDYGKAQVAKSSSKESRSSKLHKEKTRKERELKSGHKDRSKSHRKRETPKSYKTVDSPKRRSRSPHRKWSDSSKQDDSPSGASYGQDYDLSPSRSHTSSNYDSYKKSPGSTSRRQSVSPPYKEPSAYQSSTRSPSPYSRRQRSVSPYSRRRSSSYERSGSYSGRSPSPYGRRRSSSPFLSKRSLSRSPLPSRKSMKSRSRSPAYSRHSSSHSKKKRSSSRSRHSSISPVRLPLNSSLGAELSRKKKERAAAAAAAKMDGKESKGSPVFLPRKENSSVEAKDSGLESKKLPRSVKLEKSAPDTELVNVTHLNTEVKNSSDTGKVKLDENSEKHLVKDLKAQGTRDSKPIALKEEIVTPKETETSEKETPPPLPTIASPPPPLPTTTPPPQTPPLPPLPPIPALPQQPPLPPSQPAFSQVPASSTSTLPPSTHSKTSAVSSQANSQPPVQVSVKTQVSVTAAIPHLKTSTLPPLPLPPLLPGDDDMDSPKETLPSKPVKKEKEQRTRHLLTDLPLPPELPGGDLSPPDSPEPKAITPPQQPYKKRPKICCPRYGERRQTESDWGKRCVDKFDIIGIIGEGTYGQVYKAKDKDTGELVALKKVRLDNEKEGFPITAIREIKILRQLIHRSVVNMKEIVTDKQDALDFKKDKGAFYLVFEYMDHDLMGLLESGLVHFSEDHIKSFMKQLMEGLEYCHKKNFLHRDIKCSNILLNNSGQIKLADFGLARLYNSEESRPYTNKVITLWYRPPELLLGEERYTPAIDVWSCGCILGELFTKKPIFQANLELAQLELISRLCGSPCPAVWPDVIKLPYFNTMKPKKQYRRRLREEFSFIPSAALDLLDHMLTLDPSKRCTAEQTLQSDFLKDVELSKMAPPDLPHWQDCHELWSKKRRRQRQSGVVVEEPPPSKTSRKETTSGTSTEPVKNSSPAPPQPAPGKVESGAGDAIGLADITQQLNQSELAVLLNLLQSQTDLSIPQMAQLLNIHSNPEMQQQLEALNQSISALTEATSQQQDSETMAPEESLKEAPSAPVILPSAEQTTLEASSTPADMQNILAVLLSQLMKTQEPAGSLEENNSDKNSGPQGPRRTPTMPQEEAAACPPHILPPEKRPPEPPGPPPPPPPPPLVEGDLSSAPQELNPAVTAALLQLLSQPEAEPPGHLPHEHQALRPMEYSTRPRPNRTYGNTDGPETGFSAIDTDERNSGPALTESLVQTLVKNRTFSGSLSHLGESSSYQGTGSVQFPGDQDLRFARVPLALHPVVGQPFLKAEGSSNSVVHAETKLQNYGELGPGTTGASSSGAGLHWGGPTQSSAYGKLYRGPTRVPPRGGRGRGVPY
Mitogen-activated protein kinase 9, sequence (P45984 whole entry): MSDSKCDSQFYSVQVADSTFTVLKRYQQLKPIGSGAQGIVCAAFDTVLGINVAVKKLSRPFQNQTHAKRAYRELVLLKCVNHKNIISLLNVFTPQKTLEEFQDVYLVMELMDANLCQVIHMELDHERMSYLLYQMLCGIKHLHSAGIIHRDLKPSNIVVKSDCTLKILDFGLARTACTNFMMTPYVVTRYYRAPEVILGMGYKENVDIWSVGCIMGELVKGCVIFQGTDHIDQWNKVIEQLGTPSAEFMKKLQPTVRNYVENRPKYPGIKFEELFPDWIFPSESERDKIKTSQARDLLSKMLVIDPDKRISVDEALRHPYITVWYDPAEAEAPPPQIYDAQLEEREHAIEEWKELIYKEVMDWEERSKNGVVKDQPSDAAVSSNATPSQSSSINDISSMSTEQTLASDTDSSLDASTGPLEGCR

Row | Compound | Kd [1] | Kd (DNA topoisomerase 2-beta) | Kd [2] | Kd [3] | Kd [4] | Kd [5] | Kd [6] | Kd [7] | Kd [8] | Kd (TGF-beta receptor type-2) | Kd [9] | Kd [10] | Kd [11] | Kd [12] | Kd [13]
1 | Cn1ncc(Cl)c1-c1cc(C(=O)N[C@H](CN)Cc2cccc(F)c2)sc1Cl [AFURESERTIB] | > 30 µM (inactive) | > 30 µM (inactive) | > 30 µM (inactive) | > 30 µM (inactive) | > 30 µM (inactive) | > 30 µM (inactive) | > 30 µM (inactive) | > 30 µM (inactive) | > 30 µM (inactive) | > 30 µM (inactive) | > 30 µM (inactive) | > 30 µM (inactive) | > 30 µM (inactive) | > 30 µM (inactive) | > 30 µM (inactive)
2 | CN(C)C(=O)c1cc2cnc(Nc3ccc(N4CCNCC4)cn3)nc2n1C1CCCC1 [RIBOCICLIB] | > 30 µM (inactive) | > 30 µM (inactive) | > 30 µM (inactive) | > 30 µM (inactive) | > 30 µM (inactive) | > 30 µM (inactive) | – | > 30 µM (inactive) | > 30 µM (inactive) | > 30 µM (inactive) | > 30 µM (inactive) | > 30 µM (inactive) | > 30 µM (inactive) | 9.31 µM (active) | 12.3 µM
3 | Cc1ccc(-n2nc(C(C)(C)C)cc2NC(=O)NCc2cc(F)ccc2Oc2ccc3c(cnn3CCO)c2)cc1 [PEXMETINIB] | > 30 µM (inactive) | > 30 µM (inactive) | > 30 µM (inactive) | > 30 µM (inactive) | > 30 µM (inactive) | > 30 µM (inactive) | > 30 µM (inactive) | 0.312 µM (active) | > 30 µM (inactive) | > 30 µM (inactive) | > 30 µM (inactive) | > 30 µM (inactive) | > 30 µM (inactive) | > 30 µM (inactive) | > 30 µM (inactive)
4 | O=C(Nc1ccc(-c2ccnc(Nc3ccc(N4CCOCC4)cc3)n2)cc1)C1CCCN1 (stereo unspecified) [XL-019] | > 30 µM (inactive) | > 30 µM (inactive) | > 30 µM (inactive) | 0.39 µM (active) | > 30 µM (inactive) | > 30 µM (inactive) | > 30 µM (inactive) | > 30 µM (inactive) | > 30 µM (inactive) | > 30 µM (inactive) | > 30 µM (inactive) | > 30 µM (inactive) | > 30 µM (inactive) | 0.007 µM (active) | > 30 µM (inactive)
5 | CN1CC[C@@H](c2c(O)cc(O)c3c(=O)cc(-c4ccccc4Cl)oc23)[C@@H]1CO | 3.16 µM (active) | > 30 µM (inactive) | > 30 µM (inactive) | > 30 µM (inactive) | > 30 µM (inactive) | > 30 µM (inactive) | > 30 µM (inactive) | > 30 µM (inactive) | > 30 µM (inactive) | > 30 µM (inactive) | > 30 µM (inactive) | > 30 µM (inactive) | > 30 µM (inactive) | > 30 µM (inactive) | > 30 µM (inactive)
6 | CCn1c(-c2nonc2N)nc2c(C#CC(C)(C)O)ncc(OC[C@H]3CCCNC3)c21 [GSK-690693] | > 30 µM (inactive) | > 30 µM (inactive) | – | > 30 µM (inactive) | – | – | > 30 µM (inactive) | – | – | – | – | – | – | > 30 µM (inactive) | 2.7 µM (active)
7 | C1=C/COCc2cc(ccc2OCCN2CCCC2)Nc2nccc(n2)-c2cccc(c2)COC/1 [PACRITINIB] | > 30 µM (inactive) | > 30 µM (inactive) | > 30 µM (inactive) | > 30 µM (inactive) | > 30 µM (inactive) | > 30 µM (inactive) | > 30 µM (inactive) | > 30 µM (inactive) | > 30 µM (inactive) | > 30 µM (inactive) | > 30 µM (inactive) | > 30 µM (inactive) | > 30 µM (inactive) | 0.052 µM (active) | 67.9 µM (active)
8 | C[C@@H](c1ccc2nccn2c1)n1nnc2ncc(-c3cnn(C)c3)nc21 [SAVOLITINIB] | > 30 µM (inactive) | – | > 30 µM (inactive) | – | > 30 µM (inactive) | > 30 µM (inactive) | > 30 µM (inactive) | > 30 µM (inactive) | > 30 µM (inactive) | > 30 µM (inactive) | > 30 µM (inactive) | > 30 µM (inactive) | > 30 µM (inactive) | > 30 µM (inactive) | > 30 µM (inactive)
9 | COc1cc(N2CCC(N3CCN(C)CC3)CC2)ccc1Nc1ncnc(Nc2ccccc2S(=O)(=O)C(C)C)n1 [ASP-3026] | > 30 µM (inactive) | > 30 µM (inactive) | 0.494 µM (active) | > 30 µM (inactive) | > 30 µM (inactive) | > 30 µM (inactive) | – | > 30 µM (inactive) | > 30 µM (inactive) | > 30 µM (inactive) | > 30 µM (inactive) | > 30 µM (inactive) | 1.02 µM (active) | 0.822 µM (active) | > 30 µM (inactive)
10 | O=c1sn(-c2cccc3ccccc23)c(=O)n1Cc1ccccc1 [TIDEGLUSIB] | > 30 µM (inactive) | > 30 µM (inactive) | > 30 µM (inactive) | > 30 µM (inactive) | > 30 µM (inactive) | > 30 µM (inactive) | > 30 µM (inactive) | > 30 µM (inactive) | > 30 µM (inactive) | > 30 µM (inactive) | > 30 µM (inactive) | > 30 µM (inactive) | > 30 µM (inactive) | > 30 µM (inactive) | > 30 µM (inactive)
11 | C=CC(=O)N1CCC(Oc2cc3c(Nc4ccc(Cl)c(Cl)c4F)ncnc3cc2OC)CC1 [POZIOTINIB] | > 30 µM (inactive) | > 30 µM (inactive) | 0.003 µM (active) | > 30 µM (inactive) | > 30 µM (inactive) | > 30 µM (inactive) | – | > 30 µM (inactive) | > 30 µM (inactive) | > 30 µM (inactive) | > 30 µM (inactive) | > 30 µM (inactive) | 0.069 µM (active) | > 30 µM (inactive) | > 30 µM (inactive)
